Results on nine compounds are retold here after DBAASP.

Some test systems named below: Candida albicans; Candida glabrata; Streptococcus agalactiae; Staphylococcus xylosus; Trichomonas vaginalis T1; Vibrio alginolyticus; Bacillus subtilis 168; Escherichia coli B; Pseudomonas aeruginosa; Staphylococcus aureus 1; Staphylococcus aureus; Listeria grayi DSM 20601; Candida albicans SC5314.
Holding throughout (assay): ≥ marks a high value that may be exact or a test limit, other limits are often not marked, values filed in µg/mL are converted to µM
Experiment [1] concerns Lactiplantibacillus plantarum 965.
Experiment [2] concerns Latilactobacillus sakei NCDO 2714.
Experiment [3] concerns Escherichia coli K12 MG1655.
The test system of experiment [4] is Staphylococcus aureus 68 HER 1049.
The test system of experiment [5] is Escherichia coli ATCC 25922.
Experiment [6] deals with Mycobacterium tuberculosis H37Rv.
Experiment [7] concerns Mycobacterium tuberculosis.
In experiment [8] the test system is Pseudomonas aeruginosa ATCC 9027.
Experiment [9] relates to Staphylococcus aureus ATCC 25923.
Experiment [10] concerns Escherichia coli DH5alpha.
Experiment [11] relates to Listeria monocytogenes BCRC 14845.
Experiment [12] concerns Trichomonas vaginalis ATCC 30001.
The subject of experiment [13] is Trichomonas vaginalis ATCC 50143.
Experiment [14] concerns Vibrio vulnificus BCRC 12905.
The test system of experiment [15] is Acinetobacter baumannii ATCC BAA-1794.
In experiment [16] the test system is Escherichia coli ATCC 51659.
Experiment [17] deals with Pseudomonas aeruginosa PAO1.
For experiment [18], the system named is Staphylococcus aureus ATCC 33592.
Experiment [19] has as its system Candida albicans F7-39/IDE99.
Experiment [20] concerns Micrococcus luteus CCM 144.
The test system of experiment [21] is Pseudomonas aeruginosa ATCC 27853.
For experiment [22], the system named is Staphylococcus aureus ATCC 43300.
The test system of experiment [23] is Staphylococcus epidermidis.
Experiment [24] concerns Candida albicans CCARM 14020.
Experiment [25] has as its system Candida albicans CCARM 14021.
Experiment [26] concerns Candida albicans CCARM 14022.

Each structure is given as a SMILES string. Converted amounts (≈) assume the structure as drawn.

What is called MIC is the least concentration at which growth counts as inhibited. Low readings indicate inhibition by little substance, high ones a need for much substance. In the case of `CSCC[C@H](NC(=O)[C@H](CCC(N)=O)NC(=O)[C@H](CC(C)C)NC(=O)[C@H](CO)NC(=O)[C@@H](N)Cc1ccc(O)cc1)C(=O)O` [YSLQM], the results for the minimal inhibitory concentration (MIC) in experiment [1] and in experiment [2] were 10 µM (≈ 6.41 µg/mL) and 1 µM (≈ 0.641 µg/mL), respectively.
As for `CC[C@H](C)[C@H](NC(=O)CNC(=O)[C@H](CCCCN)NC(=O)[C@H](Cc1ccccc1)NC(=O)[C@H](CC(C)C)NC(=O)[C@H](CCCCN)NC(=O)[C@H](Cc1c[nH]c2ccccc12)NC(=O)[C@@H](N)CCCCN)C(=O)N[C@@H](CCCN=C(N)N)C(=O)N[C@@H](C)C(=O)N[C@H](C(=O)N[C@@H](CC(C)C)C(=O)N[C@@H](CCCCN)C(=O)N[C@H](C(=O)N[C@@H](CC(C)C)C(=O)O)C(C)C)C(C)C` [KWKLFKGIRAVLKVL], the MIC in experiment [3] is 2.22 µM (≈ 4 µg/mL); in experiment [4] it was 4.45 µM (≈ 8 µg/mL).
For `CC[C@H](C)[C@H](NC(=O)[C@H](CCCCN)NC(=O)[C@H](CCCCN)NC(=O)[C@@H](NC(=O)[C@H](C)NC(=O)[C@H](CO)NC(=O)[C@@H](NC(=O)[C@H](C)NC(=O)[C@H](CO)NC(=O)[C@@H]1CCCN1C(=O)[C@@H](NC(=O)[C@H](CC(C)C)NC(=O)[C@H](CO)NC(=O)[C@H](CC(C)C)NC(=O)[C@H](CC(C)C)NC(=O)[C@H](Cc1ccccc1)NC(=O)[C@@H](N)Cc1ccccc1)[C@@H](C)CC)[C@@H](C)CC)[C@@H](C)CC)C(N)=O` [FFLLSLIPSAISAIKKI], the minimal inhibitory concentration (MIC) in the experiment with Candida albicans was 6.25 µM (≈ 11.6 µg/mL); with Candida glabrata, ≥ 50 µM; in experiment [5] it was 24 µM (≈ 44.6 µg/mL); in [6] it was 5.4 µM (≈ 10 µg/mL); in experiment [7] it was 8.6 µM (≈ 16 µg/mL); in experiment [8], 5 µM (≈ 9.3 µg/mL). For the same compound, the minimum inhibitory concentration (MIC) (in experiment [9]; with Streptococcus agalactiae) was 5 µM (≈ 9.3 µg/mL) in each case.
In the case of `NC(N)=NCCC[C@H](NC(=O)[C@H](CCCN=C(N)N)NC(=O)[C@H](CCCN=C(N)N)NC(=O)[C@H](Cc1ccccc1)NC(=O)[C@H](Cc1ccccc1)NC(=O)[C@H](Cc1ccccc1)NC(=O)[C@H](Cc1ccccc1)NC(=O)[C@H](Cc1ccccc1)NC(=O)[C@H](CCCN=C(N)N)NC(=O)[C@H](CCCN=C(N)N)NC(=O)[C@@H](N)CCCN=C(N)N)C(=O)O` [RRRFFFFFRRR], the minimum inhibitory concentration (MIC) in experiment [10] came to 4 µM (≈ 6.76 µg/mL); with Staphylococcus xylosus, 0.5 µM (≈ 0.846 µg/mL).
With `CSCC[C@H](NC(=O)[C@H](CCCN=C(N)N)NC(=O)CNC(=O)[C@H](CCCCN)NC(=O)[C@H](Cc1ccc(O)cc1)NC(=O)[C@H](Cc1ccc(O)cc1)NC(=O)[C@@H](NC(=O)[C@H](CCC(N)=O)NC(=O)[C@H](Cc1ccccc1)NC(=O)[C@H](CCCN=C(N)N)NC(=O)[C@H](CCCCN)NC(=O)[C@H](CC(C)C)NC(=O)[C@H](Cc1ccc(O)cc1)NC(=O)[C@@H]1CCCN1C(=O)[C@H](CCCCN)NC(=O)[C@@H](NC(=O)[C@@H](NC(=O)[C@H](Cc1ccccc1)NC(=O)[C@H](CCCCN)NC(=O)[C@H](CS)NC(=O)[C@H](CCC(=O)O)NC(C)=O)[C@@H](C)O)C(C)C)C(C)C)C(=O)N[C@@H](Cc1c[nH]c2ccccc12)C(=O)N[C@@H](CS)C(=O)N1CCC[C@H]1C(N)=O` [ECKFTVKPYLKRFQVYYKGRMWCP], the MIC in experiment [11] is 8.14 µM (≈ 25.3 µg/mL); in experiment [12], ≥ 32.6 µM; in [13] it was 8.14 µM (≈ 25.3 µg/mL); with Trichomonas vaginalis T1 it was ≥ 65.1 µM; against Vibrio alginolyticus it was ≥ 32.6 µM; in experiment [14], ≥ 32.6 µM.
Regarding `CC(C)C[C@H](NC(=O)[C@H](CCCCN)NC(=O)[C@H](CCC(=O)O)NC(=O)[C@H](CCCCN)NC(=O)[C@@H](NC(=O)[C@H](CCCCN)NC(=O)[C@H](CCCCN)NC(=O)[C@H](Cc1ccccc1)NC(=O)[C@H](Cc1cnc[nH]1)NC(=O)[C@H](CCC(=O)O)NC(=O)[C@H](CO)NC(=O)[C@H](Cc1ccccc1)NC(=O)[C@H](Cc1c[nH]c2ccccc12)NC(=O)[C@H](CC(N)=O)NC(=O)[C@H](CCCN=C(N)N)NC(=O)[C@@H](NC(=O)[C@H](CCCCN)NC(=O)[C@@H](NC(=O)[C@H](CO)NC(=O)[C@@H](N)Cc1ccccc1)[C@@H](C)O)[C@@H](C)O)C(C)C)C(=O)N[C@@H](CCCCN)C(=O)N[C@@H](CC(=O)O)C(=O)N[C@H](C(=O)N[C@@H](Cc1ccccc1)C(=O)N[C@@H](C)C(=O)O)[C@@H](C)O` [FSTKTRNWFSEHFKKVKEKLKDTFA], the minimum inhibitory concentration (MIC) in [15] is ≥ 80.6 µM; in experiment [16] it was ≥ 80.6 µM; in experiment [17], > 80.6 µM; in [18], ≥ 80.6 µM.
As to `CC[C@H](C)[C@H](NC(=O)CN)C(=O)N[C@@H](CCSC)C(=O)N[C@H](C(=O)N[C@@H](CO)C(=O)N[C@@H](CC(C)C)C(=O)N[C@@H](CCSC)C(=O)N[C@@H](CCCCN)C(=O)N[C@@H](CCCCN)C(=O)N[C@@H](CC(C)C)C(=O)N[C@@H](C)C(=O)N[C@@H](C)C(=O)N[C@@H](Cc1cnc[nH]1)C(=O)N[C@H](C(=O)N[C@@H](C)C(=O)N[C@@H](CCCCN)C(N)=O)[C@@H](C)CC)[C@@H](C)CC` [GIMISLMKKLAAHIAK], the MIC in the experiment with Bacillus subtilis 168 is 7 µM (≈ 12.1 µg/mL); in experiment [19], 12 µM (≈ 20.7 µg/mL); with Escherichia coli B, 12 µM (≈ 20.7 µg/mL); in experiment [20], 3 µM (≈ 5.17 µg/mL); in experiment [21], 47 µM (≈ 81 µg/mL); with Pseudomonas aeruginosa it was > 100 µM. Further, the MIC in the experiment with Staphylococcus aureus 1 was ≥ 35 µM; in experiment [22], 43 µM (≈ 74.1 µg/mL); in the experiment with Staphylococcus aureus it was 65 µM (≈ 112 µg/mL); in experiment [23], 8.8 µM (≈ 15.2 µg/mL).
For the compound `CC[C@H](C)[C@H](NC(=O)[C@H](CS)NC(=O)[C@@H](NC(=O)[C@H](CCCN=C(N)N)NC(=O)[C@H](CCCCN)NC(=O)[C@H](CC(C)C)NC(=O)[C@H](Cc1ccccc1)NC(=O)[C@H](CC(N)=O)NC(=O)CNC(=O)[C@@H](N)CS)[C@@H](C)O)C(=O)N[C@@H](CS)C(=O)N[C@H](C(=O)N[C@@H](CCCCN)C(=O)N[C@@H](CCCCN)C(=O)O)C(C)C` [CGNFLKRTCICVKK], in the experiment with Listeria grayi DSM 20601, the MIC was ≥ 60 µM.
Take `CC(C)C[C@H](NC(=O)[C@@H](N)Cc1c[nH]c2ccccc12)C(=O)N[C@@H](CC(N)=O)C(=O)N[C@@H](C)C(=O)N[C@@H](CCCCN)C(=O)N[C@@H](CCCN=C(N)N)C(=O)N[C@@H](Cc1cnc[nH]1)C(=O)N[C@@H](Cc1cnc[nH]1)C(=O)NCC(=O)N[C@@H](Cc1ccc(O)cc1)C(=O)N[C@@H](CCCCN)C(=O)N[C@@H](CCCN=C(N)N)C(=O)N[C@@H](CCCCN)C(=O)N[C@@H](Cc1ccccc1)C(=O)N[C@@H](Cc1cnc[nH]1)C(N)=O` [WLNAKRHHGYKRKFH]: the MIC in experiment [24] worked out at 2.86 µM (≈ 5.65 µg/mL); in experiment [25], 5.72 µM (≈ 11.3 µg/mL); in experiment [26], 16.2 µM (≈ 32 µg/mL); in the experiment on Candida albicans SC5314, 2.86 µM (≈ 5.65 µg/mL).
